One assay concerns the target purified, active Btk (Homo sapiens, UniProt Q06187). The experiment in a line: Btk labeling in vitro (purified enzyme, SDS-PAGE, fluorescent scan).
The next assay addresses c-met (Homo sapiens, UniProt P08581). Nature of the assay: TR-FRET kinase assay, c-met. In kind it is biochemical. Particulars: ATP at Km. The procedure: (§1) Kinase activity for Btk, Abl, c-met, ITK, LCK, and EGFR was determined using a time-resolved fluorescence resonance energy transfer (TR-FRET) methodology. Measurements were performed in a reaction volume of 50 μl using 96-well assay plates. […] The reaction was quenched by the addition of 1.2 equivalents of EDTA (relative to divalent cation) in 25 μL of 1× Lance buffer (Perkin-Elmer). Streptavidin-APC (Perkin-Elmer) and Eu-labeled p-Tyr100 antibody (Perkin-Elmer) in 1× Lance buffer were added in a 25 μL volume to give final concentrations of 100 nM and 2.5 nM, respectively, and the mixture was allowed to incubate for one hour. The TR-FRET signal was measured on a multimode plate reader with an excitation wavelength of 330 nm and detection wavelengths of 615 and 665 nm. Activity was determined by the ratio of the fluorescence at 665 nm to that at 615 nm. For each compound, enzyme activity was measured at various concentrations of compound. Negative control reactions were performed in the absence of inhibitor in replicates of six, and two no-enzyme controls were used to determine baseline fluorescence levels. Inhibition constants {Ki(app)} were obtained using the program BatchKi (23). […]; for all kinases, [ATP]=KmATP, [Btk]total=0.5 nM and [Lck]total=6 nM.
For orientation: Time-resolved FRET reads energy transfer from a long-lived donor to a nearby acceptor.

Assay [1] concerns intracellular calcium mobilization in Ramos cells following B cell receptor activation. Nature of the assay: Calcium flux assay in Ramos B-cells stimulated with anti-human IgM. It is filed as cell-based. Particulars: anti-IgM stimulation, read-out: IC50 Ca2+ flux (calcium mobilization). The protocol: Calcium flux assay was performed according to the protocol described by the manufacturer (Molecular Devices). Briefly, actively growing Ramos B-cells in RPMI medium supplemented with 10% FBS were washed and re-plated in low serum medium to approximately 5×10^5 cells per 100 μl per well in 96-well plate. Compounds to be assayed were dissolved in DMSO, diluted to appropriate concentrations in low serum medium (from 0 to 10 μM final concentrations at a stepwise dilution factor of 0.3), added to each well (the final DMSO concentration was 0.01% in each well) and incubated at 37° in a 5% CO2 incubator for 1 hour. 100 μl calcium assay dye (Calcium 3 assay kit, Molecular Devices) was then added to each well and the incubation was continued for one hour. Compound-treated cells were stimulated with a goat anti-human IgM antibody (80 μg/ml) and the calcium mobilization signal was read in a Flexstation II 384 (Molecular Devices) at excitation and emission wavelengths of 485 nm and 538 nm, respectively, for 200 seconds. The relative fluorescence units (RFU) and the fifty percent inhibition values (IC50%) were recorded and analyzed using the SoftMax program (Molecular Devices).

The next assay has as its target Lck (Homo sapiens, UniProt P06239). The experiment in a line: TR-FRET kinase assay, Lck. Particulars: ATP at Km. It is filed as biochemical. The protocol: (§2) Kinase activity for Btk, Abl, c-met, ITK, LCK, and EGFR was determined using a time-resolved fluorescence resonance energy transfer (TR-FRET) methodology. Measurements were performed in a reaction volume of 50 μl using 96-well assay plates. […] For each compound, enzyme activity was measured at various concentrations of compound. Negative control reactions were performed in the absence of inhibitor in replicates of six, and two no-enzyme controls were used to determine baseline fluorescence levels. Inhibition constants {Ki(app)} were obtained using the program BatchKi (23).

Assay [2] deals with Btk Lys 430 to Ala mutant (Homo sapiens, UniProt Q06187, K430A). Nature of the assay: Probe labeling in 293H cells transiently co-expressing PLCγ2 and Btk K430A. Particulars: transient co-expression with PLCγ2.
Method: (§3) The selected co-expressor cell line was routinely maintained in D-MEM containing 10% FBS, 1× non-essential amino acids, 1× antibiotics, and supplemented with 200 μg/ml G418 and 25 μg/ml blastocidin. […] Cells were then harvested and lysed by incubation in 50 μl of cell lysis buffer (CelLytic M, Sigma) supplemented with 1× protease inhibitor and 1× phosphatase inhibitor cocktails (Calbiochem) for 10 min on ice. The protein concentrations in cell lysates were determined by Bradford protein assay (Pierce). Lysates equivalent to 20 μg of total protein were fractionated on 4 to 20% SDS-gradient gels (Invitrogen), and scanned using a Typhoon densitometer as described above. Labeling of Ramos cells was carried out in identical fashion except RPMI medium was used.
In another assay the target is Abl (Homo sapiens, UniProt P00519). The experiment in a line: TR-FRET kinase assay, Abl. Particulars: ATP at Km. It is filed as biochemical. The procedure:
as §2

Assay [3] deals with T1, Btk (Homo sapiens, UniProt Q06187). The experiment in a line: Inhibition of PLCγ2 phosphorylation at Tyr 1217 in 293H cells (ELISA). It is filed as cell-based. The note with it: Tyr 1217, ELISA, read-out: IC50 for probe inhibition of PLCγ2 phosphorylation. For orientation: In an ELISA, binding on a coated surface is turned into a signal by an enzyme label.
In a further assay the target is EGFR (Homo sapiens, UniProt P00533). Nature of the assay: TR-FRET kinase assay, EGFR. In kind it is biochemical. Particulars: ATP at Km. The protocol: as §1
The target in assay [4] is T1, Btk. Nature of the assay: Probe labeling of endogenous Btk in cultured B cells (DOHH2).
Method: In some embodiments, to determine if a test Btk probe detects endogenous levels of Btk activity, label cultured B cells such as Ramos or DOHH2 B cells were used.
Cells were then harvested and lysed by incubation in 50 μl of cell lysis buffer (CelLytic M, Sigma) supplemented with 1× protease inhibitor and 1× phosphatase inhibitor cocktails (Calbiochem) for 10 min on ice. The protein concentrations in cell lysates were determined by Bradford protein assay (Pierce). Lysates equivalent to 20 μg of total protein were fractionated on 4 to 20% SDS-gradient gels (Invitrogen), and scanned using a Typhoon densitometer as described above. Labeling of Ramos cells was carried out in identical fashion except RPMI medium was used.
Assay [5] has as its target T1, Btk. The experiment in a line: TR-FRET kinase assay, Btk. In kind it is biochemical. Also on record: His6 (N); purchased Upstate Biochem. The procedure: as §1
In assay [6] the target is Btk Tyr 551 to Ala mutant (Homo sapiens, UniProt Q06187, Y551A). The experiment in a line: Probe labeling in 293H cells transiently co-expressing PLCγ2 and Btk Y551A. The note with it: transient co-expression with PLCγ2.
Method: as §3
The target in assay [7] is Btk Cys 481 to Ala mutation (Homo sapiens, UniProt Q06187, C481A). The experiment in a line: Probe labeling in 293H cells transiently co-expressing PLCγ2 and Btk C481A. Particulars: transient co-expression with PLCγ2.
Method: as §3
Assay [8] addresses T1, Btk. Nature of the assay: Probe labeling of Btk in 293H cells stably co-expressing Btk and PLCγ2.

T1 sequence (Q06187 whole entry): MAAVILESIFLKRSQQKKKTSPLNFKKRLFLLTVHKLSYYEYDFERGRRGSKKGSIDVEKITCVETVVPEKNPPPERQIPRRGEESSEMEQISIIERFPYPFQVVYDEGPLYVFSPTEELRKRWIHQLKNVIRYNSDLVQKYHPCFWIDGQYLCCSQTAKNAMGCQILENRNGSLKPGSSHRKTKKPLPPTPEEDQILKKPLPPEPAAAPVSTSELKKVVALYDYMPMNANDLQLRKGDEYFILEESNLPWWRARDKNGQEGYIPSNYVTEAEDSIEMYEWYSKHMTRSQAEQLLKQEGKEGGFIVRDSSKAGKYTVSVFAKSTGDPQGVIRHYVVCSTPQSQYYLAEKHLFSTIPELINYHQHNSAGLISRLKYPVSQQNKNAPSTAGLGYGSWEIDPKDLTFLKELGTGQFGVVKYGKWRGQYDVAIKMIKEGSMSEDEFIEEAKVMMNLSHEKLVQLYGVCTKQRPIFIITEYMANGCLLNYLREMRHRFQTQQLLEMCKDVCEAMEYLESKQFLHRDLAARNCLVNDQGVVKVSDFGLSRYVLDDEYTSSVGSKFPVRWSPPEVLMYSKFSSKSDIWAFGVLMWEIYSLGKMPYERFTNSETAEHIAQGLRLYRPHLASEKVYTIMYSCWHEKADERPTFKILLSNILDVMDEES
Sequence of purified, active Btk (Q06187 whole entry): as above
Sequence of c-met (P08581 25-1390): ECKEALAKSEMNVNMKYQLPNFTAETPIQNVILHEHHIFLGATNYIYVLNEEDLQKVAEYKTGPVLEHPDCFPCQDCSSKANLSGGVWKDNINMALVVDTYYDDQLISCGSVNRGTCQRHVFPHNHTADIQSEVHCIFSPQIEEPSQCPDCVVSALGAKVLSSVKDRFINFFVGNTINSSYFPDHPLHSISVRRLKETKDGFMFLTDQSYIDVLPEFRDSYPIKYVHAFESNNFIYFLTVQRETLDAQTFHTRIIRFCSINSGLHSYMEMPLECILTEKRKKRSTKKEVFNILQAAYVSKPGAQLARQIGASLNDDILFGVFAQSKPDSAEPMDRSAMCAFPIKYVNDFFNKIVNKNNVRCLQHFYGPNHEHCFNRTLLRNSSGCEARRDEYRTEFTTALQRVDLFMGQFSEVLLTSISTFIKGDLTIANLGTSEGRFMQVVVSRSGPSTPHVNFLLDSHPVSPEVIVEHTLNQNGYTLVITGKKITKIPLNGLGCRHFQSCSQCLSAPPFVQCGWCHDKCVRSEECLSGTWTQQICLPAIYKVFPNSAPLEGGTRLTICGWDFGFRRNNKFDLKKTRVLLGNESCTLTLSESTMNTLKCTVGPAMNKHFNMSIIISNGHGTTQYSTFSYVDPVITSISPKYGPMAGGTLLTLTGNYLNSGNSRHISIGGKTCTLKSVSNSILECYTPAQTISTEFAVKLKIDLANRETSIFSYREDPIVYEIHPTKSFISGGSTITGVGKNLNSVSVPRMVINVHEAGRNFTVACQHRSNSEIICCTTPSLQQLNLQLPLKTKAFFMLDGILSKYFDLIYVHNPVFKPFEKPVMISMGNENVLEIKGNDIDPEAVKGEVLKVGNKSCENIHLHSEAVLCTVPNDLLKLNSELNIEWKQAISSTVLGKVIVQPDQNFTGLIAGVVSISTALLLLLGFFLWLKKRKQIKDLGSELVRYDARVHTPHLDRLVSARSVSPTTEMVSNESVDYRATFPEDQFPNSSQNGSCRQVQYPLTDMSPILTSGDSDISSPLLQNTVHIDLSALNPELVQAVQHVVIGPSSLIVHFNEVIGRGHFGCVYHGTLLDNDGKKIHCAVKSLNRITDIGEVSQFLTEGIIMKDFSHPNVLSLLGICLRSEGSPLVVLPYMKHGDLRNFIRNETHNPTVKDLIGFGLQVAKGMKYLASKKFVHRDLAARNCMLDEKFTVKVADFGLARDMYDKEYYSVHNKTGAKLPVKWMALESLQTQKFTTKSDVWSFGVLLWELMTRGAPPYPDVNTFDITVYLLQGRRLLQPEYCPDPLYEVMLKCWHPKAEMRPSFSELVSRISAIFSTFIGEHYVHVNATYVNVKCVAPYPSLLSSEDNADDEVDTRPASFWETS
Sequence of EGFR (P00533 25-1210, species assumed): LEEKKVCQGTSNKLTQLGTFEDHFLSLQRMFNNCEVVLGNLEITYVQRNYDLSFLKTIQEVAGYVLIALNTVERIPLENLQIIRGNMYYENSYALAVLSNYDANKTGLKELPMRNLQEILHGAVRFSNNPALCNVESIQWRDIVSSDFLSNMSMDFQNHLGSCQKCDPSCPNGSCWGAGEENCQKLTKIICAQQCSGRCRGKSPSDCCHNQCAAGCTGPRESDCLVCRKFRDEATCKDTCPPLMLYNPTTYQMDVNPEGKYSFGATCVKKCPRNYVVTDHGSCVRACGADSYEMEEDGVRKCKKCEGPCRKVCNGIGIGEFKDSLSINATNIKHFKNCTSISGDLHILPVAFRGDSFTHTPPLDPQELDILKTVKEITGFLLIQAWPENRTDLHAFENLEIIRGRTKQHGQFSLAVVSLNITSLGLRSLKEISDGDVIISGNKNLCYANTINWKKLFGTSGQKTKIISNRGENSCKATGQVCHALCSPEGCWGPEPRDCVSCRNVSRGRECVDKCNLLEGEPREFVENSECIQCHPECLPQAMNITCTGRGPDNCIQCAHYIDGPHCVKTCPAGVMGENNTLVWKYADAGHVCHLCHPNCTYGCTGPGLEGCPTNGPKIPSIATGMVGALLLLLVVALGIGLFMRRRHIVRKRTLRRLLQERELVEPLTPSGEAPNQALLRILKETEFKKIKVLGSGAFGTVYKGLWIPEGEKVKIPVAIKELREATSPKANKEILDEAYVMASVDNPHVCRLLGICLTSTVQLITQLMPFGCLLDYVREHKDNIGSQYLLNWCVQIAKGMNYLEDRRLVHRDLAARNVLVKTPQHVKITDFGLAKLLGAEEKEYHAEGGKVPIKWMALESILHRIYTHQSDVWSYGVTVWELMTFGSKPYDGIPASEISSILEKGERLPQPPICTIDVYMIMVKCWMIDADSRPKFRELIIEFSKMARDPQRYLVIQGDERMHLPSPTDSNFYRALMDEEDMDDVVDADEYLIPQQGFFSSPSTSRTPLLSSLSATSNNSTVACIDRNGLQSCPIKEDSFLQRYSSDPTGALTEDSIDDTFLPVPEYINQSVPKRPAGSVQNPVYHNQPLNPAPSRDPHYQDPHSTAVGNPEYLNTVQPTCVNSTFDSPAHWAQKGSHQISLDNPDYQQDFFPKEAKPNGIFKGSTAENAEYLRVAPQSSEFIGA
Sequence of Btk Tyr 551 to Ala mutant (Q06187 whole entry Y551A): as the sequence (Q06187 whole entry) above, with Y551A counted along it
Sequence of Btk Cys 481 to Ala mutation (Q06187 whole entry C481A): as the sequence (Q06187 whole entry) above, with C481A counted along it
Sequence of Lck (P06239 whole entry, species assumed): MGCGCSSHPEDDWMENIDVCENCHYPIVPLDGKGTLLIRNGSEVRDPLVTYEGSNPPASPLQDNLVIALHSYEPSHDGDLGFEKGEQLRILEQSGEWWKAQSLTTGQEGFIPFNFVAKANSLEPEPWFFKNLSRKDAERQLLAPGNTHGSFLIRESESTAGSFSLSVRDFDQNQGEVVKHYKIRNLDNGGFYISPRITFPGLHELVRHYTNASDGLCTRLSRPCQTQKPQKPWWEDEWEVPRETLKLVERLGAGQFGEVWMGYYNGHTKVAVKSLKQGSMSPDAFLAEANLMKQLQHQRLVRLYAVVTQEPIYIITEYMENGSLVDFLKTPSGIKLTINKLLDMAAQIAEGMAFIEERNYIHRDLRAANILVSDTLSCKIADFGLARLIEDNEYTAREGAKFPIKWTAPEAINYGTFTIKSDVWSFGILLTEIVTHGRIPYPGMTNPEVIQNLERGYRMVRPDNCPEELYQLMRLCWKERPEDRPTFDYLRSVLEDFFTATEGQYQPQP
Sequence of Btk Lys 430 to Ala mutant (Q06187 whole entry K430A): as the sequence (Q06187 whole entry) above, with K430A counted along it
Sequence of Abl (P00519 whole entry, species assumed): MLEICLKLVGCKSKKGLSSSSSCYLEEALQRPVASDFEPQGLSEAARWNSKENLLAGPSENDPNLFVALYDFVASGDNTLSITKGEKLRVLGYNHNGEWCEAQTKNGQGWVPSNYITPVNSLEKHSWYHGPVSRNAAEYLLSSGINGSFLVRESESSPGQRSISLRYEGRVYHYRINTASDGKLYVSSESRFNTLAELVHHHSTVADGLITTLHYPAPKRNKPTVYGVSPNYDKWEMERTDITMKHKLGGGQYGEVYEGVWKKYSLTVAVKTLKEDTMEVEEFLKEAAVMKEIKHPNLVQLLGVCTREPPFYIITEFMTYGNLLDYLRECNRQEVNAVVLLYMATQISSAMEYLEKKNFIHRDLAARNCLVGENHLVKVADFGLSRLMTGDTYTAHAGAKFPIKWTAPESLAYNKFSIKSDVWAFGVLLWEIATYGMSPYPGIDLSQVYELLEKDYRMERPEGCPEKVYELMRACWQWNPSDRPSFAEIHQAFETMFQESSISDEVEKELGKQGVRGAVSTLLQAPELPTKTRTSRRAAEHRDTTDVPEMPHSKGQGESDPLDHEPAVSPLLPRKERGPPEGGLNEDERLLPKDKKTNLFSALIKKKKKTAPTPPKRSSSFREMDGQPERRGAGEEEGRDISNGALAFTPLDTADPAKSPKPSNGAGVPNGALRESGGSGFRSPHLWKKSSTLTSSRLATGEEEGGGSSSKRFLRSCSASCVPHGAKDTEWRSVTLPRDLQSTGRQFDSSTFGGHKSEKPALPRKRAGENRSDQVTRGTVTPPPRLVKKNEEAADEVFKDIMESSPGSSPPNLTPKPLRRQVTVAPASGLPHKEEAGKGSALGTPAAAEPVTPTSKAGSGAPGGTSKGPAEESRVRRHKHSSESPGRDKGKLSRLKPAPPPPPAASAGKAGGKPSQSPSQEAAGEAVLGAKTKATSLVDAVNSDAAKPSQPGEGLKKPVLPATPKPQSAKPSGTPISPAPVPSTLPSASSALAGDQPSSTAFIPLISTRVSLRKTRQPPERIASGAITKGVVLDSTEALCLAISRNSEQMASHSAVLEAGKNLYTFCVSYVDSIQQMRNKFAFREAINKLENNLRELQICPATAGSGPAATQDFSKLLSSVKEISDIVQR

For the compound `Nc1ncnc2c1ncn2[C@@H]1O[C@H](COP(=O)(O)OP(=O)(O)OP(O)(O)=S)[C@@H](O)[C@H]1O` [ATP-γ-S, reference compound], the “Effect of pre-incubation on Compound 3 labeling of Btk” value on purified, active Btk (pre-incubation with 1 μM Compound 2 or 0.5 mM ATPγS) is listed as “substantially reduced”.
Consider `C=CC(=O)N1CCC[C@@H](n2nc(-c3ccc(Oc4ccccc4)cc3)c3c(N)ncnc32)C1` [Compound 2], for which the IC50 (as a rule, the concentration that gives 50% inhibition) turned out to be 35000 nM at c-met and 10 nM in assay [1].
`CC1=CC(C)=[N+]2C1=Cc1ccc(CCC(=O)NCCN3CCN(C/C=C/C(=O)N4CCC[C@@H](n5nc(-c6ccc(Oc7ccccc7)cc6)c6c(N)ncnc65)C4)CC3)n1[B-]2(F)F` [Compound 3]: the IC50 against Lck came to 240 nM; on c-met, 100000 nM; against Abl, 300 nM; at Btk [3], 300 nM; against EGFR, 2900 nM; in assay [1] it was 230 nM. For the same compound, the IC50 on Btk [5] (ATP at Km, read-out: IC50 Btk) is 89 nM; on Btk [5] (read-out: IC50 against Btk) it was 90 nM. Moreover, the “Probe labeling of Btk K430A mutant” value in assay [2] is recorded as “no effect on probe labeling”. In addition, on purified, active Btk (1 μg (0.13 μM) purified Btk, 1 hour at 37° C.), the “Probe concentration at which labeling of Btk reached saturation” value came to 1 µM. For the same compound, the EC50 at Btk [4] and on Btk [8] was about 200 nM in each case. The “Probe labeling of Btk Y551A mutant” value in assay [6] is recorded as “also labeled”. For the same compound, in assay [7], the “Probe labeling of Btk C481A mutant” value is “abrogated labeling”.
